The text below walks through data of patent US20170121315A1, “HETEROBICYCLICALLY SUBSTITUTED 4-OXOBUTANE ACID DERIVATIVES AND USE THEREOF” (priority 2014, published 2017).

One data set addresses T1, MMP-3 (Homo sapiens, UniProt P08254).
T1 construct: purchased R&D Systems 513-MP
Description: In vitro MMP-3 inhibition test. The settings on record: human MMP-3. It is filed as biochemical. From the text: (§1) The MMP-mediated amidolytic cleavage of a suitable peptide substrate leads to an increase in fluorescent light here too. The signal intensity of the fluorescent light is directly proportional to the enzyme activity. The active concentration of a test compound at which half the enzyme is inhibited (50% signal intensity of the fluorescent light) is reported as the IC50 value.
(§2) Recombinant MMP-3 (R&D Systems, 513-MP) is chemically activated in accordance with the manufacturer's instructions using APMA. 1 μl of the test compound to be analysed (as a solution in DMSO, suitable concentrations e.g. 1 nM to 30 μM) is pipetted into 24 μl of activated enzyme (final concentration e.g. 2 nM) in reaction buffer (50 mM Tris/HCl pH 7.5, 10 mM CaCl2, 150 mM NaCl, 0.05% Brij®-35) in a white 384-hole microtiter plate (MTP). The enzymatic reaction is started by adding the intramolecularly quenched Mca-Arg-Pro-Lys-Pro-Val-Glu-Nval-Trp-Arg-Lys(Dnp)-NH2 substrate (final concentration e.g. 10 μM; R&D Systems, ES-002), so as to result in a total test volume of 50 μl. The course of the MMP-3 reaction is measured by measuring the fluorescence intensity (excitation 320 nm, emission 410 nm) over a suitable period of time (e.g. over 120 min at a temperature of 32° C.).

The next data set has as its target T2, MMP-14 (Homo sapiens, UniProt P50281).
T2 construct: purchased R&D Systems 918-MP
The experiment in a line: In vitro MMP-14 inhibition test. It is filed as biochemical. As to conditions: human MMP-14.
From the text: as §1
Recombinant MMP-14 (R&D Systems, 918-MP) is enzymatically activated in accordance with the manufacturer's instructions using recombinant furin (R&D Systems, 1503-SE). 1 μl of the test compound to be analysed (as a solution in DMSO, suitable concentrations e.g. 1 nM to 30 μM) is pipetted into 24 μl of activated enzyme (final concentration e.g. 0.5 nM) in reaction buffer (50 mM Tris/HCl pH 7.5, 10 mM CaCl2, 150 mM NaCl, 0.05% Brij®-35) in a white 384-hole microtiter plate (MTP). The enzymatic reaction is started by adding the intramolecularly quenched Mca-Lys-Pro-Leu-Gly-Leu-Dpa(Dnp)-Ala-Arg-NH2 substrate (final concentration e.g. 5 μM; R&D Systems, ES-010), so as to result in a total test volume of 50 μl. The course of the MMP-14 reaction is measured by measuring the fluorescence intensity (excitation 320 nm, emission 410 nm) over a suitable period of time (e.g. over 120 min at a temperature of 32° C.).

Another data set deals with T3, MMP-8 (Homo sapiens, UniProt P22894).
T3 construct: purchased R&D Systems 908-MP
Description: In vitro MMP-8 inhibition test. It is filed as biochemical. As to conditions: human MMP-8.
From the text: as §1
as §2, with “Recombinant MMP-8” for “Recombinant MMP-3”, “Systems, 908-MP)” for “Systems, 513-MP)”, “e.g. 0.5” for “e.g. 2”, “quenched Mca-Pro-Leu-Gly-Leu-Dpa(Dnp)-Ala-Arg-NH2” for “quenched Mca-Arg-Pro-Lys-Pro-Val-Glu-Nval-Trp-Arg-Lys(Dnp)-NH2”, “Systems, ES-001),” for “Systems, ES-002),”, “the MMP-8” for “the MMP-3”

Another data set has as its system rat hepatocytes. The experiment in a line: Hepatocyte assay for determination of metabolic stability. It is filed as in vitro ADME. The settings on record: after incubation with rat hepatocytes. The protocol: The metabolic stability of test compounds towards hepatocytes is determined by incubating the compounds at low concentrations (preferably below or around 1 μM) and at low cell counts (preferably at 1*10^6 cells/ml) in order to ensure maximum linearity of kinetic conditions in the experiment. Seven samples from the incubation solution are taken for the LC-MS analysis within a fixed time pattern, in order to determine the half-life (i.e. the degradation) of the particular compound. This half-life is used to calculate various “Clearance” parameters (CL) and “Fmax” values (see below).
The CL and Fmax values are a measure of the phase 1 and phase 2 metabolism of the compounds in the hepatocytes. In order to minimize the influence of the organic solvent on the enzymes in the incubation batches, the concentration thereof is generally limited to 1% (acetonitrile) or 0.1% (DMSO).
For all species and breeds, a hepatocyte cell count in the liver of 1.1*10^8 cells/g of liver is expected.

Each structure is given as a SMILES string. pIC50: −log10 of the molar value. Some results are limits rather than exact numbers.

T1 sequence (P08254 100-477): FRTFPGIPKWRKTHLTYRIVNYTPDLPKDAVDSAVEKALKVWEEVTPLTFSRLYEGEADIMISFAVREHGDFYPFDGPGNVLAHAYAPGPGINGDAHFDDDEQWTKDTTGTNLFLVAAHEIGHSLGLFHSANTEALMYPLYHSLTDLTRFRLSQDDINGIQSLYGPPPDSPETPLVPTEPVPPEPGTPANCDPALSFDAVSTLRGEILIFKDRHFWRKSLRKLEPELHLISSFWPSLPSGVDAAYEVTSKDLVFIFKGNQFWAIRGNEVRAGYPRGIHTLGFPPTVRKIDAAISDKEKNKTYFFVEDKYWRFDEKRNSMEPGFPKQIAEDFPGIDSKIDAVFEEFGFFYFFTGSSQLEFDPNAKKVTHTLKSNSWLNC
T3 sequence (P22894 101-467): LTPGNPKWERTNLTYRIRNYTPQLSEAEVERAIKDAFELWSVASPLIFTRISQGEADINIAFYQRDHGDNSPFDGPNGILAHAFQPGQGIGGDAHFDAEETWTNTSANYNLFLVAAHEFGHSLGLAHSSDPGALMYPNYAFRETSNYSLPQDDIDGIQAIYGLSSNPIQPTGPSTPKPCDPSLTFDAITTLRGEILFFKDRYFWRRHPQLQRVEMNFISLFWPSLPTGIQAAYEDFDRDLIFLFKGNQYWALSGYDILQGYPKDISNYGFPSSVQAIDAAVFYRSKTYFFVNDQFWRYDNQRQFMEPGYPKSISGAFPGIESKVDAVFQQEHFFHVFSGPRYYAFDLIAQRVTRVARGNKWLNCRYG

Broadly, the pIC50 is the IC50 on a negative log10 scale, so that one unit is a factor of ten. On to `O=C(CC(CCn1nnc2ccccc2c1=O)C(=O)O)c1noc2cc(OCCc3ccccc3)ccc12` (racemic) [Example 144, (+/−)-4-Oxo-2-[2-(4-oxo-1,2,3-benzotriazin-3(4H)-yl)ethyl]-4-[6-(2-phenylethoxy)-1,2-benzoxazol-3-yl]butanoic acid], for which the pIC50 against MMP-3 was 4.74; against MMP-14, 5.60; against MMP-8, 5.60. The “CLblood (calculated blood clearance, well-stirred)” value in the data set with rat hepatocytes was 29 mL/min/kg. Besides, the “Fmax (maximum possible bioavailability after oral administration, well-stirred)” value in the data set with rat hepatocytes came to 58.6%.

In the case of `O=C(CC(CCn1nnc2ccccc2c1=O)C(=O)O)c1cc2ccc(OCC3CC3)cc2s1` (single isomer, unassigned; (+)) [Example 112, (+)-4-[6-(Cyclopropylmethoxy)-1-benzothiophen-2-yl]-4-oxo-2-[2-(4-oxo-1,2,3-benzotriazin-3(4H)-yl)ethyl]butanoic acid], the negative logarithm of the IC50 (pIC50) was 5.19 against MMP-3, 5.55 against MMP-14 and 6.62 against MMP-8. The “CLblood (calculated blood clearance, well-stirred)” value in the data set with rat hepatocytes was 33.2 mL/min/kg. The “Fmax (maximum possible bioavailability after oral administration, well-stirred)” value in the data set on rat hepatocytes amounted to 52.5%.

With `O=C(CC(CCn1nnc2ccc(C(F)(F)F)cc2c1=O)C(=O)O)c1noc2cc(OCC3CCOCC3)ccc12` (racemic) [Example 155, (+/−)-4-Oxo-2-{2-[4-oxo-6-(trifluoromethyl)-1,2,3-benzotriazin-3(4H)-yl]ethyl}-4-[6-(tetrahydro-2H-pyran-4-ylmethoxy)-1,2-benzoxazol-3-yl]butanoic acid], the pIC50 on MMP-3 was 4.72; at MMP-14, less than 4.40; against MMP-8 it was 7.09. Moreover, the “CLblood (calculated blood clearance, well-stirred)” value in the data set on rat hepatocytes was 20.2 mL/min/kg. Besides, in the data set on rat hepatocytes, the “Fmax (maximum possible bioavailability after oral administration, well-stirred)” value is reported as 71.1%.

Turning to `O=C(C[C@H](CCn1nnc2ccccc2c1=O)C(=O)O)c1noc2cc(OCC3CCOCC3)ccc12` (single isomer, unassigned; enantiomer 2) [Example 135], the negative logarithm of the IC50 (pIC50) is 4.92 on MMP-3, 5.46 against MMP-14 and 6.77 at MMP-8. Besides, the “CLblood (calculated blood clearance, well-stirred)” value in the data set on rat hepatocytes was 22.7 mL/min/kg. Moreover, the “Fmax (maximum possible bioavailability after oral administration, well-stirred)” value in the data set on rat hepatocytes was 67.5%.

As to `O=C(O)[C@@H]1[C@@H](Cn2nnc3ccc(C(F)(F)F)cc3c2=O)CC[C@H]1C(=O)c1cc2cc(OCCc3ccccc3)ccc2o1` (single isomer, unassigned; enantiomer 2) [Example 159, (+)-(1RS,2SR,5RS)-2-{[4-Oxo-6-(trifluoromethyl)-1,2,3-benzotriazin-3(4H)-yl]methyl}-5-{[5-(2-phenylethoxy)-1-benzofur-2-yl]carbonyl}cyclopentanecarboxylic acid (enantiomer 2)], the pIC50 against MMP-3 is 5.66; at MMP-14 it was 5.59; at MMP-8 it was 6.51. The “CLblood (calculated blood clearance, well-stirred)” value in the data set with rat hepatocytes was 10.8 mL/min/kg. Further, the “Fmax (maximum possible bioavailability after oral administration, well-stirred)” value with rat hepatocytes was determined as 84.5%.

`O=C(CC(CCn1nnc2ccccc2c1=O)C(=O)O)c1noc2cc(OCc3ccccc3)ccc12` (racemic) [Example 145, (+/−)-4-[6-(Benzyloxy)-1,2-benzoxazol-3-yl]-4-oxo-2-[2-(4-oxo-1,2,3-benzotriazin-3(4H)-yl)ethyl]butanoic acid]: the pIC50 on MMP-3 is 5.05; on MMP-14, 5.40; at MMP-8 it was 5.55. In addition, in the data set on rat hepatocytes, the “CLblood (calculated blood clearance, well-stirred)” value is 25.5 mL/min/kg. For the same molecule, the “Fmax (maximum possible bioavailability after oral administration, well-stirred)” value in the data set with rat hepatocytes was determined as 63.7%.

Take `O=C(CC(CCn1nnc2ccccc2c1=O)C(=O)O)c1noc2cc(OCc3ccc(F)cc3)ccc12` (racemic) [Example 136, (+/−)-4-{6-[(4-Fluorobenzyl)oxy]-1,2-benzoxazol-3-yl}-4-oxo-2-[2-(4-oxo-1,2,3-benzotriazin-3(4H)-yl)ethyl]butanoic acid]: the pIC50 is 4.82 against MMP-3, 5.31 on MMP-14 and 5.92 at MMP-8. Besides, the “CLblood (calculated blood clearance, well-stirred)” value in the data set on rat hepatocytes was 12.2 mL/min/kg. Moreover, in the data set on rat hepatocytes, the “Fmax (maximum possible bioavailability after oral administration, well-stirred)” value turned out to be 82.7%.

For the molecule `CCCCCOc1ccc2c(C(=O)CC(CCn3nnc4ccccc4c3=O)C(=O)O)noc2c1` (racemic) [Example 140, (+/−)-4-Oxo-2-[2-(4-oxo-1,2,3-benzotriazin-3(4H)-yl)ethyl]-4-[6-(pentyloxy)-1,2-benzoxazol-3-yl]butanoic acid], the negative-log IC50 (pIC50) is 4.85 on MMP-3, 5.47 against MMP-14 and 6.24 at MMP-8. Besides, in the data set on rat hepatocytes, the “CLblood (calculated blood clearance, well-stirred)” value is 24.8 mL/min/kg. Besides, in the data set on rat hepatocytes, the “Fmax (maximum possible bioavailability after oral administration, well-stirred)” value was 64.5%.

For `O=C(CC(CCn1nnc2ccccc2c1=O)C(=O)O)c1cc2cc(OCC3CCOCC3)ccc2o1` (racemic) [Example 5, (+/−)-4-Oxo-2-[2-(4-oxo-1,2,3-benzotriazin-3(4H)-yl)ethyl]-4-[5-(tetrahydro-2H-pyran-4-ylmethoxy)-1-benzofur-2-yl]butanoic acid], the pIC50 was less than 4.40 on MMP-3, 4.47 against MMP-14 and 5.11 against MMP-8. For the same molecule, in the data set on rat hepatocytes, the “CLblood (calculated blood clearance, well-stirred)” value is 27 mL/min/kg. Besides, in the data set with rat hepatocytes, the “Fmax (maximum possible bioavailability after oral administration, well-stirred)” value is 61.4%.

Regarding `O=C(CC(CCn1nnc2ccccc2c1=O)C(=O)O)c1cc2ccc(OCCc3ccccc3)cc2o1` (racemic) [Example 73, (+/−)-4-Oxo-2-[2-(4-oxo-1,2,3-benzotriazin-3(4H)-yl)ethyl]-4-[6-(2-phenylethoxy)-1-benzofur-2-yl]butanoic acid], the pIC50 at MMP-3 is 4.54; on MMP-14, less than 4.40; against MMP-8 it was less than 4.40. For the same molecule, the “CLblood (calculated blood clearance, well-stirred)” value in the data set on rat hepatocytes is 23.2 mL/min/kg. For the same molecule, the “Fmax (maximum possible bioavailability after oral administration, well-stirred)” value with rat hepatocytes is reported as 66.9%.

As to `O=C(CC(CCn1nnc2ccc(C(F)(F)F)cc2c1=O)C(=O)O)c1noc2cc(OCc3ccccc3)ccc12` (racemic) [Example 154, (+/−)-4-[6-(Benzyloxy)-1,2-benzoxazol-3-yl]-4-oxo-2-{2-[4-oxo-6-(trifluoromethyl)-1,2,3-benzotriazin-3(4H)-yl]ethyl}butanoic acid], the pIC50 at MMP-3 was 5.00; on MMP-14, 4.59; at MMP-8 it was 6.01. Further, in the data set with rat hepatocytes, the “CLblood (calculated blood clearance, well-stirred)” value is 20.3 mL/min/kg. Further, the “Fmax (maximum possible bioavailability after oral administration, well-stirred)” value in the data set on rat hepatocytes is recorded as 70.9%.
